Assay results: patent publication US12186413B2, “Non-cellular root canal filler and non-cellular dental tissue regeneration promotion kit” (KOWA COMPANY, LTD., priority 2019, dated 2025)
Read-outs that look alike come from different tables or passages of the source.

Legend:
dental pulp [1] = assay: Dental pulp regeneration after pulpectomy in young dogs with non-cellular root canal filler; format: in vivo, dog; conditions: for dental pulp regeneration (H-E staining, morphological observation) / infiltration / internal absorption of inflammatory cells: 12-month-old dogs; for dental pulp regeneration (H-E staining, morphological observation) / infiltration / internal absorption of inflammatory cells / regeneration of dental pulp-like tissues (H-E staining): trypsin pretreatment; for dental pulp regeneration (H-E staining, morphological observation): 1.25 μg compound B or 0.83 μg SB328437 + 150 ng G-CSF in 20 μl collagen; for infiltration / internal absorption of inflammatory cells: filler with G-CSF and collagen; for amount of the regenerated dental pulp (ratio of regenerated dental pulp area to dental pulp cavity area): compound B filler compared with SB328437 filler
Protocol: After general anesthesia, pulpectomy was performed for maxillary and mandibular right and left anterior teeth in young (12-month-old) dogs. The openings were enlarged to the apex of the root with #55, then washed alternately with a 5% sodium hypochlorite solution and a 3% hydrogen peroxide solution, further washed with saline, dried, and then temporarily sealed with a resin completely. At 3 to 12 days after the pulpectomy, the temporary seals were removed, and the openings were washed alternately and washed with saline again. Then, the root canals were filled with 3% EDTA (Smear Clean, Nippon Shika Yakuhin Co., Ltd.), treated for 2 minutes, further washed with saline, and dried. Then, the root canals were pretreated by the application of trypsin preparation (5 mg of Francetin T powder (2,500 USP crystal trypsin per 10 mg, Mochida Pharmaceutical Co., Ltd.)/ml of 0.5% nanobubble water (prepared with Foamest 8 (NAC Corp.); see Koichiro Iohara and Misako Nakajima “Enhanced Delivery of Antibacterial Nanopolymers with Nanobubbles for the Complete Disinfection of the Root Canal System in a Canine Model of Intractable Periapical Disease”, The Japanese Journal Of Conservative Dentistry, Vol. 63, No. 1, p. 73-82) for 10 minutes, and then washed with saline. Subsequently, a CCR3 antagonist (1.25 μg of compound B or 0.83 μg of SB328437 (Tocris Bioscience)) as a regeneration promoting compound and 150 ng of G-CSF (Neutrogin, Chugai Pharmaceutical Co., Ltd.) as a chemotactic factor were added to 20 μl of extracellular matrix collagen (Koken Atelocollagen Implant, Koken Co., Ltd.) to prepare a non-cellular root canal filler, which was then filled into the root canals. Then, a gelatin sponge for hemostasis (Spongel, Astellas Pharma Inc.) was placed thereon, and the cavities were completely sealed with glass ionomer cement and a photopolymerizable resin. Then, 28 days after transplantation, the teeth were extracted, and 5 μm paraffin sections were prepared on longitudinal sections according to a standard method, stained with H-E, and then morphologically observed. The amount of the regenerated dental pulp was evaluated by measuring the ratio of the area of regenerated dental pulp to the area of a dental pulp cavity as to four sections per sample, and calculating the mean of four samples. Angiogenesis was evaluated by staining day 28 specimens with Fluorescein labeled Griffonia simplicifolia (Bandeiraea simplicifolia) Lectin I (GSL I, BSL I) and Fluorescein labeled Galanthus nivalis (Snowdrop) Lectin (GNL) (Vector Laboratories) (20 μg/ml) for 15 minutes, followed by comparative examination. Neurite extension was evaluated by immunostaining day-28 specimens with an anti-PGP9.5 antibody (UltraClone, 1:10,000), followed by comparative examination.
After general anesthesia, pulpectomy was performed for maxillary and mandibular right and left anterior teeth in young (11-month-old) dogs. The openings were enlarged to the apex of the root with #55, then washed alternately with a 5% sodium hypochlorite solution and a 3% hydrogen peroxide solution, and further washed with saline. The root canals were thoroughly dried with a paper point and temporarily sealed with cement and a resin completely after hemostasis. Then, 8 days after the pulpectomy, the temporary seals were removed, and the openings were washed alternately and washed with saline again. Then, the root canals were filled with 3% EDTA (Smear Clean, Nippon Shika Yakuhin Co., Ltd.), treated for 2 minutes, further washed with saline, and dried. Then, the root canals were pretreated by the application of a trypsin preparation (5 mg of Francetin T powder (2,500 USP crystal trypsin per 10 mg), Mochida Pharmaceutical Co., Ltd.)/ml of 0.5% nanobubble water (prepared with Foamest 8 (NAC Corp.); as described in Example 1)) for 10 minutes, and then washed with saline. […]

dental pulp [2] = conditions: cited from earlier work
dental pulp stem cells = conditions: dentin surfaces treated with trypsin in vitro; cited from earlier work
[3] = Example 3, compound B filler, 28 days
[4] = Example 3, with and without trypsin pretreatment, 28 days

Molecule: CC(C)Nc1ccc(CNCCN2Cc3ccc(F)cc3CC2Cc2ccc(F)cc2)cc1.O=C(O)/C=C/C(=O)O (single isomer, unassigned; (+)) [compound B, (+)-4-[[2-[6-fluoro-3-(4-fluorobenzyl)-3,4-dihydroisoquinolin-2(1H)-yl]ethylamino]methyl]-N-isopropylaniline monofumarate]
- dental pulp regeneration (H-E staining, morphological observation) (dental pulp [1]; Example 1, 28 days): found to cause dental pulp regeneration of loose connective tissues rich in blood vessels
- infiltration / internal absorption of inflammatory cells (dental pulp [1]; Example 1, 28 days): neither the infiltration nor internal absorption of inflammatory cells was observed
- amount of the regenerated dental pulp (ratio of regenerated dental pulp area to dental pulp cavity area) (dental pulp [1]; Example 1, 28 days): No statistically significant difference
- angiogenesis (lectin staining) (dental pulp [1]; Example 1, day 28 specimens): confirmed
- neurite extension (PGP9.5 immunostaining) (dental pulp [1]; Example 1, day 28 specimens): confirmed
- odontoblast-like cell adhesion to dentin side wall / dentin-like hard tissue formation (dental pulp [1]; Example 1, day 28 specimens): odontoblast-like cells adhere to the side wall of the dentin to form dentin-like hard tissues
- regeneration of dental pulp-like tissues (H-E staining) (dental pulp [1]; Example 2, 11-month-old dogs, 1.25 μg compound B + 150 ng G-CSF in collagen, 28 days): found to sufficiently regenerate dental pulp-like tissues
- amount of the regenerated dental pulp versus filler containing no compound B (dental pulp [1]; Example 2, 28 days): Statistically significant difference
- angiogenesis (BS-1 lectin staining) versus filler containing no compound B (dental pulp [1]; Example 2, 28 days): similar
- neurite extension (PGP9.5 immunostaining) versus filler containing no compound B (dental pulp [1]; Example 2, 28 days): similar
- regeneration of dental pulp tissues (H-E staining) (dental pulp [1]; Example 3, 11-month-old dogs, with or without trypsin pretreatment, 1.25 μg compound B + 150 ng G-CSF in collagen, 28 days): regeneration of dental pulp tissues was observed, regardless of whether trypsin pretreatment was performed or not
- amount of regenerated dental pulp, with versus without trypsin pretreatment (dental pulp [1]; [3]): tended to slightly increase the amount of regenerated dental pulp, albeit with no statistically significant difference
- odontoblast-like cell adhesion to dentin side wall and dentin-like hard tissue amount, with versus without trypsin pretreatment (dental pulp [1]; [3]): tended to allow more odontoblast-like cells to adhere to the side wall of the dentin and form dentin-like hard tissues in a slightly higher amount
- angiogenesis (BS-1 lectin staining) (dental pulp [1]; [4]): similarly observed in both these cases
- neurite extension (PGP9.5 immunostaining) (dental pulp [1]; [4]): similarly observed in both these cases
- dental pulp regeneration, odontoblast-like cell adhesion and dentin-like hard tissue formation (dental pulp [1]; Example 3, without trypsin pretreatment, 28 days): regenerates the dental pulp with angiogenesis and neurite extension

Molecule: CS(=O)(=O)Nc1cccc(CNCCN2Cc3ccc(F)cc3CC2Cc2ccc(F)cc2)c1.O=C(O)CC(O)(CC(=O)O)C(=O)O (single isomer, unassigned; (+)) [compound C, (+)-N-[3-(methanesulfonylamino)benzyl]-2-[6-fluoro-3-(4-fluorobenzyl)-3,4-dihydroisoquinolin-2(1H)-yl]ethanamine monocitrate]
- regeneration of dental pulp-like tissues (H-E staining) (dental pulp [1]; Example 4, 11-month-old dogs, 1.2 μg compound C + 150 ng G-CSF in collagen, 28 days): found to sufficiently regenerate dental pulp-like tissues
- area of the dentin (ratio to area of tooth) versus filler containing no compound C (dental pulp [1]; Example 4, 28 days): tended to increase the area of the dentin
- density of dentin cells (within 1 mm from root canal side wall) versus filler containing no compound C (dental pulp [1]; Example 4, 28 days): increased the density of dentin cells

Molecule: COC(=O)[C@H](Cc1ccc([N+](=O)[O-])cc1)NC(=O)c1cccc2ccccc12 [SB328437, reference compound]
- dental pulp regeneration (H-E staining, morphological observation) (dental pulp [1]; Example 1, 28 days): found to cause dental pulp regeneration of loose connective tissues rich in blood vessels
- infiltration / internal absorption of inflammatory cells (dental pulp [1]; Example 1, 28 days): neither the infiltration nor internal absorption of inflammatory cells was observed
- amount of the regenerated dental pulp (ratio of regenerated dental pulp area to dental pulp cavity area) (dental pulp [1]; Example 1, 28 days): No statistically significant difference
- angiogenesis (lectin staining) (dental pulp [1]; Example 1, day 28 specimens): confirmed
- neurite extension (PGP9.5 immunostaining) (dental pulp [1]; Example 1, day 28 specimens): confirmed
- odontoblast-like cell adhesion to dentin side wall / dentin-like hard tissue formation (dental pulp [1]; Example 1, day 28 specimens): odontoblast-like cells adhere to the side wall of the dentin to form dentin-like hard tissues

Molecule: trypsin
- dental pulp regeneration (dental pulp [2]; middle-aged and elderly dogs, with dental pulp stem cell transplantation): promoted
- dental pulp regeneration (dental pulp [2]; without the transplantation of dental pulp stem cells): rarely observed
- dental pulp regeneration (dental pulp [2]; young dogs, with dental pulp stem cell transplantation): not found to be effective
- adhesion of the cells (dental pulp stem cells): increased the adhesion of the cells
- differentiation into odontoblasts (dental pulp stem cells): exhibited enhancement in differentiation into odontoblasts
